The test deals with Type IV PDE. Description: PDE inhibitory activity, type IV isozyme (3H-cAMP hydrolysis). Format: biochemical. Conditions: partially purified from rat neutrophils, 30° C., 30 minutes. The procedure: Type I, III, IV, and V PDE isozymes were prepared to study the PDE inhibitory activities and selectivities with the compound of the invention [Trends Pharmacol. Sci., 12, 19-27 (1992)]. Type I PDE was purchased from Sigma Corp. Type III, IV, and V PDE isozymes were partially purified from rats platelets (Type III and V) or neutrophils (Type IV). Each enzyme source was homogenized in a buffer (pH 6.5) containing 20 mM bisTris, 2 mM EDTA (ethylenediamine tetraacetate), 0.1 mM PMSF (phenylmethylsulfonyl fluoride), 5 mM 2-mercaptoethanol, 0.001 mM pepstatin, and 0.01 mM leupeptin and was centrifuged at 30,000×G for 30 minutes to obtain a supernatant, which was applied to an ion exchange column (Q-sepharose First Flow, Pharmacia Corp.) and was eluted with 0 to 1M sodium acetate. Partially purified isozymes were identified by observing the effects of conventional inhibitors.
Each PDE isozyme and the test compound dissolved in DMSO (dimethyl sulfoxide) were added to 50 mM Tris-HCl buffer containing 5 mM magnesium chloride. ^3 H-cAMP (for type III and IV PDE) or ^3 H-cGMP (for type I and V PDE) were added as substrates and were reacted at 30° C. for 30 minutes. The reaction was terminated by placing the test tube in boiling water of 100° C. for 5 minutes. The nucleotides formed by PDE were broken down by 5'-nucleotidase to ^3 H-adenosine or ^3 H-guanosine. The unreacted substrate and reaction product were separated through an ion-exchange column (QAE sephadex, Pharmacia Corp.) The eluted ^3 H-nucleoside was measured for its radioactivity by a liquid scintillation counter. The inhibiting activities of the compound of the present invention are shown by the IC50 value (M). Further, the inhibitory activities of the test samples against Type I, III, and V are 1/10 or less than that against type IV.
In general, IC50 refers to the concentration at which inhibition is half-maximal. For `COc1ccc(C2(c3nccs3)CCNC(=O)O2)cc1OC` (centres unmarked) [Compound No. 27, 6-(3,4-dimethoxyphenyl)-6-(2-thiazolyl)-3,4,5,6-tetrahydro-2H-1,3-oxazin-2-one], the IC50 came out at 21 µM.

In turn, `COc1ccc(C2CCN(C)C(=O)O2)cc1OC1c2ccccc2CCc2ccccc21` (centres unmarked) [Compound No. 59, 6-[3-(10,11-dihydro-5H-dibenzo[a,d]cyclohepten-5-yloxy)-4-methoxyphenyl]-3-methyl-3,4,5,6-tetrahydro-2H-1,3-oxazin-2-one] yielded an IC50 of 27 µM.

In turn, `COc1ccc(C2CCNC(=O)O2)cc1OCCc1scnc1C` (centres unmarked) [Compound No. 72, 6-[4-methoxy-3-[2-(4-methyl-5-thiazolyl)ethoxy]phenyl]-3,4,5,6-tetrahydro-2H-1,3-oxazin-2-one] yielded a 50% inhibitory concentration (IC50) of 8.3 µM.

Compound `COc1ccc(C2CCNC(=O)O2)cc1OCC1(C)CC1` (centres unmarked) [Compound No. 63, 6-[4-methoxy-3-[(1-methylcyclopropyl)methyloxy]phenyl]-3,4,5,6-tetrahydro-2H-1,3-oxazin-2-one] had a 50% inhibitory concentration (IC50) of 3.4 µM.

`COc1ccc(C2CCNC(=O)O2)cc1OCCCN1CCN(Cc2ccccc2)CC1` (centres unmarked) [Compound No. 60, 6-[3-[3-(4-benzyl-1-piperazinyl)propoxy]-4-methoxyphenyl]-3,4,5,6-tetrahydro-2H-1,3-oxazin-2-one] displayed an IC50 of 52 µM.

Regarding `COc1ccc(C2(C)CCN(Cc3ccncc3)C(=O)O2)cc1OC1CCCC1` (centres unmarked) [Compound No. 22, 6-(3-cyclopentyloxy-4-methoxyphenyl)-6-methyl-3-(4-pyridylmethyl)-3,4,5,6-tetrahydro-2H-1,3-oxazin-2-one], the half-maximal inhibitory concentration (IC50) turned out to be 5.9 µM.

Turning to `CCC(CC)COc1cc(C2CCN(C)C(=O)O2)ccc1OC` (centres unmarked) [Compound No. 70, 6-[3-(2-ethylbutoxy)-4-methoxyphenyl]-3-methyl-3,4,5,6-tetrahydro-2H-1,3-oxazin-2-one], 3.5 µM corresponded to half-maximal inhibition (IC50).

For `COc1ccc(C2OC(=O)NCC2(C)C)cc1OC1Cc2ccccc2C1` (centres unmarked) [Compound No. 87, 5,5-dimethyl-6-[3-(2-indanyloxy)-4-methoxyphenyl]-3,4,5,6-tetrahydro-2H-1,3-oxazin-2-one], the IC50 was found to be 0.088 µM.

For the compound `COc1ccc(C2CCN(C)C(=O)O2)cc1OCC1(C)CC1` (centres unmarked) [Compound No. 64, 6-[4-methoxy-3-[(1-methylcyclopropyl)methyloxy]phenyl]-3-methyl-3,4,5,6-tetrahydro-2H-1,3-oxazin-2-one], the IC50 was 4.6 µM.

In turn, `COc1ccc(C2CCN(C)C(=O)O2)cc1O[C@H]1CC[C@H](c2ccccc2)CC1` (relative stereo) [Compound No. 79, 6-[4-methoxy-3-(trans-4-phenylcyclohexyloxy)phenyl]-3-methyl-3,4,5,6-tetrahydro-2H-1,3-oxazin-2-one] had an IC50 of 1.2 µM.

`COc1ccc(C2CCN(CCN3CCOCC3)C(=O)O2)cc1OC1CCCC1` (centres unmarked) [Compound No. 33, 6-(3-cyclopentyloxy-4-methoxyphenyl)-3-[2-(4-morpholino)ethyl]-3,4,5,6-tetrahydro-2H-1,3-oxazin-2-one] displayed an IC50 of 8.8 µM.

Regarding `COc1ccc(C2(C)CCN(C)C(=O)O2)cc1OCCCCCc1ccccc1` (centres unmarked) [Compound No. 47, 3,6-dimethyl-6-[4-methoxy-3-(5-phenylpentyloxy)phenyl]-3,4,5,6-tetrahydro-2H-1,3-oxazin-2-one], the IC50 was 0.22 µM.

In turn, `COc1ccc([C@H]2OC(=O)NC[C@H]2c2ccccc2)cc1OC1CCCC1` (relative stereo) [Compound No. 91, rel-(5R,6S)-6-(3-cyclopentyloxy-4-methoxyphenyl)-5-phenyl-3,4,5,6-tetrahydro-2H-1,3-oxazin-2-one] returned an IC50 of 2.7 µM.

Consider `COc1ccc(C2(c3cccnc3)CCNC(=O)O2)cc1OC1CCCC1` (centres unmarked) [Compound No. 36, 6-(3-cyclopentyloxy-4-methoxyphenyl)-6-(3-pyridyl)-3,4,5,6-tetrahydro-2H-1,3-oxazin-2-one], for which the IC50 was 1.6 µM.

As to `COc1ccc(C2(c3ccccn3)CCNC(=O)O2)cc1OC1CCCC1` (centres unmarked) [Compound No. 39, 6-(3-cyclopentyloxy-4-methoxyphenyl)-6-(2-pyridyl)-3,4,5,6-tetrahydro-2H-1,3-oxazin-2-one], the IC50 is 18 µM.

`COc1ccc(C2CCN(C)C(=O)O2)cc1OCCc1scnc1C` (centres unmarked) [compound 73, 6-[4-methoxy-3-[2-(4-methyl-5-thiazolyl)ethoxy]phenyl]-3-methyl-3,4,5,6-tetrahydro-2H-1,3-oxazin-2-one] came in with an IC50 of 7.3 µM.

Consider `COc1ccc(C2(c3nccs3)CCNC(=O)O2)cc1OC1CCCC1` (centres unmarked) [Compound No. 31, 6-(3-cyclopentyloxy-4-methoxyphenyl)-6-(2-thiazolyl)-3,4,5,6-tetrahydro-2H-1,3-oxazin-2-one], for which the IC50 was 4.6 µM.

`COc1ccc(C2CCNC(=O)O2)cc1OCCOCc1ccccc1` (centres unmarked) [Compound No. 83, 6-[3-(2-benzyloxyethoxy)-4-methoxyphenyl]-3,4,5,6-tetrahydro-2H-1,3-oxazin-2-one] had an IC50 of 3.4 µM.

`COc1ccc(C2OC(=O)N(C)CC2(C)C)cc1OC1CCCC1` (centres unmarked) [Compound No. 86, 6-(3-cyclopentyloxy-4-methoxyphenyl)-3,5,5-trimethyl-3,4,5,6-tetrahydro-2H-1,3-oxazin-2-one] had an IC50 of 0.86 µM.

`COc1ccc(C2(c3ccccc3)CCNC(=O)O2)cc1OC1CCCC1` (centres unmarked) [Compound No. 7, 6-(3-cyclopentyloxy-4-methoxyphenyl)-6-phenyl-3,4,5,6-tetrahydro-2H-1,3-oxazin-2-one] had an IC50 of 4.3 µM.

On to `COc1ccc(C2CCNC(=O)O2)cc1OC1CCN(Cc2ccccc2)CC1` (centres unmarked) [Compound No. 89, 6-[3-(1-benzyl-4-piperidyloxy)-4-methoxyphenyl]-3,4,5,6-tetrahydro-2H-1,3-oxazin-2-one], for which half-maximal inhibition (IC50) was put at 35 µM.

With `CCCCOc1cc(C2CCN(C)C(=O)O2)ccc1OC` (centres unmarked) [Compound No. 53, 6-(3-butoxy-4-methoxyphenyl)-3-methyl-3,4,5,6-tetrahydro-2H-1,3-oxazin-2-one], the IC50 was 9.1 µM.

`COc1ccc(C2CCNC(=O)O2)cc1OC1c2ccccc2CCc2ccccc21` (centres unmarked) [Compound No. 58, 6-[3-(10,11-dihydro-5H-dibenzo[a,d]cyclohepten-5-yloxy)-4-methoxyphenyl]-3,4,5,6-tetrahydro-2H-1,3-oxazin-2-one] showed an IC50 of 9.4 µM.

For `COc1ccc(C2CCN(C)C(=O)O2)cc1OCC1CCC1` (centres unmarked) [Compound No. 62, 6-(3-cyclobutylmethyloxy-4-methoxyphenyl)-3-methyl-3,4,5,6-tetrahydro-2H-1,3-oxazin-2-one], the midpoint of inhibition, the IC50, lay at 3.3 µM.

The compound `COc1ccc(C2CCNC(=O)O2)cc1OCCCCCc1ccccc1` (centres unmarked) [Compound No. 41, 6-[4-methoxy-3-(5-phenylpentyloxy)phenyl]-3,4,5,6-tetrahydro-2H-1,3-oxazin-2-one] showed an IC50 of 0.73 µM.

Compound `COc1ccc(C2CCNC(=O)O2)cc1OCCc1ccc(F)cc1` (centres unmarked) [Compound No. 74, 6-[3-[2-(4-fluorophenyl)ethoxy]-4-methoxyphenyl]-3,4,5,6-tetrahydro-2H-1,3-oxazin-2-one] yielded an IC50 of 1.3 µM.

These data come from patent publication US6251897A, “6-phenyltetrahydro-1,3-oxazin-2-one derivative and pharmaceutical composition containing the same” (Nikken Chemicals Co., LTD, priority 1996, dated 2001).
